The conditions of data set [1]: P is the octanol/water partition coefficient; cited from earlier work.
Data set [2] is described as follows: pyrene fluorescence I3/I1 ratio in different environments. It counts as physicochemical. As to conditions: peaks at 383 nm (I3) and 373 nm (I1), excitation 335 nm, label = environment of the pyrene.
Protocol: Zwitterionic polymer coatings were investigated by allowing pyrene to diffuse into the polymer and studying the degree to which it is taken up, and the effects on the ratio of the fluorescence band intensities to see if there is any significant indication of the type of environment present.
The solution was used to coat polymethylmethacrylate (PMMA) fluorescence cuvettes by simply pouring into the cuvette, draining, following by an oven curing at 70° C. overnight.
The fluorescence spectrum was recorded using an excitation wavelength of 335 nm and scanned from 350-440 nm on a PE LS 50B Luminescence Spectrophotometer. Subtraction of the spectrum of each coating in water was necessary to remove the interference of a small band at 380 nm present in all methacrylate systems.
Environment information could be obtained by comparing the ratio of the intensity of the peaks at 373 nm (I1) and 383 nm (I3) (I3/I1). Where I3/I1 was similar for polymer systems, the comparative amount of pyrene present could be estimated by the maximum intensity of I1; alternatively, the entire peak area may offer an alternative measure of the comparative amount of pyrene present in different coatings. It was important to mark the side of the cuvette to ensure the same orientations were achieved each time it was replaced in the spectrophotometer.
Pyrene solution added to the coated cuvettes was allowed to stand for 16 h, the cuvette emptied and washed thoroughly with ultrapure water, refilled with ultrapure water and the fluorescence spectrum recorded. The comparative maximum height of I1 was used to estimate the relative amounts of pyrene in the coatings. This was repeated for three cuvettes of each polymer and the average taken.
Data set [3] in a line: Estradiol elution studies at 25° C., non-flow system. It counts as physicochemical. As to conditions: at 4 hours, 5 ml PBS on rollers, 15 mm DD stents from Example 1.1. The method, then:
Elution studies were carried out at 25° C. for […] in gently agitated PBS. This was done by placing 15 mm DD stents loaded with estradiol, from Example 1.1 individually in vials containing 5 ml phosphate buffered saline (PBS) on rollers. At various time intervals up to 7 hours a 1 ml aliquot was removed and replaced with 1 ml fresh PBS. The stents and water aliquots were measured, to give the amount of drug eluted and the amount of drug remaining on the stents.

Data set [4] relates to porcine arteries. Description: In vivo test on estradiol loaded stents. The settings on record: one month.
A short description of data set [5]: Estradiol elution studies in flow-system at 37° C. It counts as physicochemical. The settings on record: 100 ml/min, 500 ml PBS, 8 hour period. The method, then:
The elution of estradiol was examined in a flow system at 37° C. and evaluated over an 8 hour period. PBS was maintained at 37° C. in six stirred reservoirs (500 ml each) within a water bath. A length of silicone tubing (3 mm internal diameter) was attached from each reservoir to one of six stent chambers (4 mm internal diameter 80 mm long) and back to the respective reservoir via a peristaltic pump. The system was pumped using a flow rate of 100 ml/min to reach equilibrium temperature of 37° C. The flow was stopped and two estradiol loaded 15 mm stents loaded as in Example 1 were placed in each of the six stent chambers, and flow recommenced. A stent was then removed at various time periods and wick dried. These were used to measure the amount of estradiol remaining on the stent. […]. Since the total volume of PBS passing over the stents in the flow model is […], it is likely that throughout the period the rate of desorption of drug from the stent was higher than the rate of absorption from the environment. This condition may not apply to the non-flow method.

Data set [6] in a line: Release of 17β-estradiol from stents, stirred 1000 ml PBS at 37° C. It counts as physicochemical. The settings on record: five stents vigorously stirred in 1000 ml PBS at 37° C., 24 hour period. The method, then:
The elution profile for 17β-estradiol, FIG. 6 from the stents produced in example 1.1, was assessed using an in-vitro test where five stents were vigorously stirred in a large volume (1000 ml) of PBS saline solution at 37° C. […] Aliquots of buffer were removed at various time points over a 24 hour period and analysed for 17β-estradiol content. When translated into in-vivo conditions, the release profile is predicted to be over a prolonged period of time.

For data set [7] the following is noted: pyrene fluorescence; cited from earlier work.

Each structure is given as a SMILES string.

As a reminder, the log P is a log measure of how a compound divides between an organic and an aqueous phase.

As to `C[C@H]1C[C@@H]2[C@H]([C@@H](O)C[C@@]3(C)[C@H]2CC[C@]3(O)C(=O)CO)[C@@]2(C)C=CC(=O)C=C12` [MP, 6α-methylprednisolone], the “log P” value in data set [1] is listed as 1.42.

In the case of `C=CC(=O)OCc1ccccc1` [benzyl acrylate monomer, benzyl acrylate], the I3/I1 ratio in data set [2] came to 0.75.

As to `C[C@]12CC[C@@H]3c4ccc(O)cc4CC[C@H]3[C@@H]1CC[C@@H]2O` [estradiol, 17β-estradiol], in data set [3], the “estradiol still remaining on the stent” value turned out to be 62%. Also, the Re-endothelialization scores entry in data set [4] is reported as “does not inhibit the healing process”. Moreover, the “elution compared with Example 2” value in data set [5] is “eluted relatively more quickly”. Moreover, the release from stent result in data set [6] is given as “sustained release”.

On to `C=C(C)C(=O)OCCCCCCCCCCCC` [lauryl methacrylate], for which, in data set [2], the I3/I1 ratio is recorded as 1.029.

In the case of `O` [water], the “I3/I1 ratio, literature value” in data set [7] is 0.63. In addition, in data set [2], the I3/I1 ratio amounted to 0.633.

Source of the values: patent US8512733B2, “Stents with drug-containing amphiphilic polymer coating” (Abbott Laboratories, priority 2001, dated 2013).
